The target of data set [1] is T1, α-amylase (α-AMY) (Homo sapiens, UniProt P04746).
T1 sequence (P04746 16-511): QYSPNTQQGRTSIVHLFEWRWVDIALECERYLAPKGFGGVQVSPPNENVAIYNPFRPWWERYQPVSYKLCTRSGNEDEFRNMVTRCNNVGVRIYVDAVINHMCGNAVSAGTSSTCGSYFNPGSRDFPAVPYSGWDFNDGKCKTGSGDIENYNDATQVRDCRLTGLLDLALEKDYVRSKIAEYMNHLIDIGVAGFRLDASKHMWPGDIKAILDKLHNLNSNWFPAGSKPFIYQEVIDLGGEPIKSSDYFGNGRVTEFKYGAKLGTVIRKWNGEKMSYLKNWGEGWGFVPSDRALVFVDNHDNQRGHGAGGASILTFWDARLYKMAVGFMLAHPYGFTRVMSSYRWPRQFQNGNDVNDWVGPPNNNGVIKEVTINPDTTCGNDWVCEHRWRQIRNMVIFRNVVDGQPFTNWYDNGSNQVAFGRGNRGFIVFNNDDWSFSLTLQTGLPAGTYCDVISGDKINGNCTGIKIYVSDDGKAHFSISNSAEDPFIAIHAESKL
As to the kind of experiment: α-AMY inhibitory activity (starch-iodine method, absorbance at 580 nm). The format is biochemical. The conditions noted are these: from Activity (%) - [inhibitor] graphs. On the procedure:
The assay involved preparing a substrate solution of starch in NaOH, adjusting the pH with HCl, and diluting the solution to volume. Enzyme and sample solutions were preincubated, mixed with the substrate, and incubated again. The reaction was stopped with HCl, and the absorbance was measured at 580 nm.
(§1) The inhibition effects of the novel imidazo[1,2-a]pyridine-based 1,3,4-thiadiazole derivatives were determined with different inhibitor concentrations (at least five) against AR, α-GLY, and α-AMY. The IC50 of the derivatives was calculated from Activity (%) – [inhibitor] graphs for derivatives. The inhibition types and KI values were found by Lineweaver and Burk’s curves.[50],[51]

For data set [2], the target named is α-glycosidase (α-GLY) (Saccharomyces cerevisiae, UniProt P53341). As to the kind of experiment: α-GLY inhibitory activity (para-nitrophenyl-α-D-glucopyranoside substrate). The format is biochemical. The conditions noted are these: Lineweaver-Burk curves; for Ki: mean ± SEM. On the procedure: In this analysis, a unit of α-GLY activity is defined as the amount of enzyme required to catalyze the hydrolysis of […] of substrate per minute at a standard pH of 7.4.
Chain of α-glycosidase (α-GLY) (P53341 whole entry): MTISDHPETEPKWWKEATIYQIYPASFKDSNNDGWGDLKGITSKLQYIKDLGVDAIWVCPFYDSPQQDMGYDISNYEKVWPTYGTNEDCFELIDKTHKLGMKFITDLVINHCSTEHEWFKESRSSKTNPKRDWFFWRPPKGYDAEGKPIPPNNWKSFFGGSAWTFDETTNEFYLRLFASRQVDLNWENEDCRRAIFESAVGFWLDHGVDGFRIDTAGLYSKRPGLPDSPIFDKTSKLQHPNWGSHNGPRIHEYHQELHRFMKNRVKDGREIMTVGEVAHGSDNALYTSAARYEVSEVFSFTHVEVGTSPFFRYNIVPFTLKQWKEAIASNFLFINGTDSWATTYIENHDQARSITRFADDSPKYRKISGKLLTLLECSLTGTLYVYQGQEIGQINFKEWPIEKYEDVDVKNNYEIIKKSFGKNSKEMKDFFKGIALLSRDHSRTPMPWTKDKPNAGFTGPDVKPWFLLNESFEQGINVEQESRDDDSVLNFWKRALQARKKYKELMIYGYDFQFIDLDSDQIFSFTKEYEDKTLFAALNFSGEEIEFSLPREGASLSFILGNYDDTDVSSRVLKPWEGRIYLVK
as §1

Data set [3] addresses aldose reductase (AR) (Homo sapiens, UniProt P15121). The experiment in a line: AR inhibitory activity (NADPH consumption, absorbance at 340 nm). The class given is biochemical. Particulars: Lineweaver-Burk curves; mean ± SEM. As for the experimental part:
The activity was assessed using methods that were modified from previously established protocols.[48],[49] The inhibitory activity of AR was assessed by measuring the reduction in absorbance at 340 nm due to the consumption of NADPH. […] The IC50 of the derivatives was calculated from Activity (%) – [inhibitor] graphs for derivatives.

The results in this text go back to paper PMC11500159, “Synthesis, α-Glucosidase, α-Amylase, and Aldol Reductase Inhibitory Activity with Molecular Docking Study of Novel Imidazo[1,2-a]pyridine Derivatives” (ACS Omega, 2024).

A word on the IC50: it is the concentration that inhibits the measured activity by half. Higher therefore signals a need for much substance. As usually defined, the Ki is the equilibrium dissociation constant of an inhibitor or competing ligand from its target. A high value points to weaker binding. A word on the melting point: it is the temperature, or range, at which the solid turns liquid.

The compound `O=C(CSc1nnc(Nc2ccccc2)s1)Nc1ccc(-c2cn3ccccc3n2)cc1` [8a, 2-[(5-Phenylamino-1,3,4-thiadiazol-2-yl)thio]-N-[4-(imidazo[1,2-a]pyridin-2-yl)phenyl] Acetamide] gave an IC50 in data set [1] of 142 µM. The Ki was 33 ± 1.25 µM in data set [2] and 0.0349 ± 0.00359 µM in data set [3].
`CCc1ccc(Nc2nnc(SCC(=O)Nc3ccc(-c4cn5ccccc5n4)cc3)s2)cc1` [8b, 2-[(5-(4-Ethylphenyl)amino-1,3,4-thiadiazol-2-yl)thio]-N-[4-(imidazo[1,2-a]pyridin-2-yl)phenyl]acetamide] returned a melting point of 244.2 °C. Also, the IC50 in data set [1] was 113 µM. Moreover, in data set [2], the α-GLY inhibition type entry is “noncompetitive inhibition”.
As to `O=C(CSc1nnc(NC2CCCCC2)s1)Nc1ccc(-c2cn3ccccc3n2)cc1` [8c, 2-[(5-Cyclohexylamino-1,3,4-thiadiazol-2-yl)thio]-N-[4-(imidazo[1,2-a]pyridin-2-yl)phenyl] Acetamide], the Ki came out at 77.5 ± 5.74 µM in data set [2] and 0.14 ± 0.0133 µM in data set [3].
In turn, `CCNc1nnc(SCC(=O)Nc2ccc(-c3cn4ccccc4n3)cc2)s1` [8d, 2-[(5-Ethylamino-1,3,4-thiadiazol-2-yl)thio]-N-[4-(imidazo[1,2-a]pyridin-2-yl)phenyl] Acetamide] came in with an IC50 in data set [1] of 122 µM. In addition, the results for the Ki in data set [2] and in data set [3] were 88.7 ± 17.7 µM and 0.0785 ± 0.00824 µM, respectively.
The compound `Cc1ccc(Nc2nnc(SCC(=O)Nc3ccc(-c4cn5ccccc5n4)cc3)s2)cc1` [8e, 2-[(5-(4-Methylphenyl)amino-1,3,4-thiadiazol-2-yl)thio]-N-[4-(imidazo[1,2-a]pyridin-2-yl)phenyl]acetamide] gave a melting point of 130.1 °C. The α-GLY inhibition type result in data set [2] was “competitive inhibition”.
`O=C(CSc1nnc(Nc2ccc(Cl)cc2)s1)Nc1ccc(-c2cn3ccccc3n2)cc1` [8f, 2-[(5-(4-Chlorophenyl)amino-1,3,4-thiadiazol-2-yl)thio]-N-[4-(imidazo[1,2-a]pyridin-2-yl)phenyl]acetamide] displayed a melting point of 265 °C. Besides, the IC50 in data set [1] is 142 µM.
As for `O=C(CSc1nnc(Nc2cccc(Cl)c2)s1)Nc1ccc(-c2cn3ccccc3n2)cc1` [8g, 2-[(5-(3-Chlorophenyl)amino-1,3,4-thiadiazol-2-yl)thio]-N-[4-(imidazo[1,2-a]pyridin-2-yl)phenyl]acetamide], the melting point came out at 199.2 °C. The IC50 in data set [1] is 132 µM.
As to `COc1cccc(Nc2nnc(SCC(=O)Nc3ccc(-c4cn5ccccc5n4)cc3)s2)c1` [8h, 2-[(5-(3-Methoxyphenyl)amino-1,3,4-thiadiazol-2-yl)thio]-N-[4-(imidazo[1,2-a]pyridin-2-yl)phenyl]acetamide], the melting point came out at 138.8 °C. The same compound had an IC50 in data set [1] of 143 µM.
Compound `COc1ccccc1Nc1nnc(SCC(=O)Nc2ccc(-c3cn4ccccc4n3)cc2)s1` [8i, 2-[(5-(2-Methoxyphenyl)amino-1,3,4-thiadiazol-2-yl)thio]-N-[4-(imidazo[1,2-a]pyridin-2-yl)phenyl]acetamide] returned a melting point of 104.9 °C. In data set [1], this compound showed an IC50 of 154 µM.
`O=C(CSc1nnc(Nc2ccccc2Cl)s1)Nc1ccc(-c2cn3ccccc3n2)cc1` [8j, 2-[(5-(2-Chlorophenyl)amino-1,3,4-thiadiazol-2-yl)thio]-N-[4-(imidazo[1,2-a]pyridin-2-yl)phenyl]acetamide] came in with a melting point of 129 °C. The compound also yielded an IC50 in data set [1] of 81.1 µM.
On to `COc1ccc(Nc2nnc(SCC(=O)Nc3ccc(-c4cn5ccccc5n4)cc3)s2)cc1` [8k, 2-[(5-(4-Methoxyphenyl)amino-1,3,4-thiadiazol-2-yl)thio]-N-[4-(imidazo[1,2-a]pyridin-2-yl)phenyl]acetamide], for which the melting point stood at 216.5 °C. This compound gave an IC50 in data set [1] of 113 µM.
